Patent US20160007606A1, “MICROBIOCIDAL PYRAZOLE DERIVATIVES” (SYNGENTA PARTICIPATIONS AG, priority 2012, published 2016)

melting point: 178 to 185 °C
SMILES: Cc1cc(C(F)(F)F)nn1CC(=O)N1CCN(c2nc(C3=NOC(c4c(F)cccc4F)C3)cs2)CC1C(=O)O (stereo not shown)
